Values quoted from earlier work, collected in patent publication US9949970B2, “Synthesis of new benzothiazole derivatives as potential anti-tubercular agents” (priority 2010, dated 2018).
Converted amounts (≈) assume the structure as drawn.

Test system: M. tuberculosis H37Rv
Conditions: closest benzothiazole compounds; cited from earlier work

Structure (SMILES)	MIC [µg/mL]
O=[N+]([O-])c1cc(CSc2nc3ccccc3s2)cc([N+](=O)[O-])c1	2 (≈ 5.76 µM)
O=[N+]([O-])c1ccc(CSc2nc3ccccc3s2)c([N+](=O)[O-])c1	2 (≈ 5.76 µM)
Clc1ccccc1/C=N/c1nc2ccccc2s1	73 (≈ 268 µM)
